Tested on: 3T3-L1-derived adipocytes
Experiment: Lipid homeostasis in 3T3-L1-derived adipocytes (TG level, Oil Red O staining)
Format: cell-based
Method: 5 NBA-ZG-2991 sustainably engages with FIH and regulates the expression of FIH-dependent HIF target gene EGLN3 in Hep3B cells. (A) The CETSA assay was carried out with Hep3B cells grown in the presence of NBA-ZG-2291 (50 μM) for 12–48 h after 30 min of light activation (365 nm, 16 W). The intensity of the bands for grayscale analysis was referenced to the starting temperature (37 °C). α-Actinin was the sample loading control. n = 2; mean ± SD. […] (E) Correlation heatmap of the NBA-ZG-2291-treated group and the siFIH group by RNA-sequencing analysis. […] The relative fold change with respect to DMSO treated sample is shown (with normalization to HPRT gene levels). Mean ± SEM; n = 3. (G) TG level of NBA-ZG-2291-treated 3T3-L1-derived adipocytes. Mean ± SEM; n = 3. (H) Representative Oil Red O-stained images of the control, ZG-2291-treated, and NBA-ZG-2291-treated 3T3-L1-derived adipocytes. Scale Bar, 30 μm. P values were analyzed by two-way ANOVA comparing with the vehicle/control group (*, P < 0.05; **, P < 0.01; ***, P < 0.001, ****, P < 0.0001). See Methods (Quantitative PCR Analysis of Gene Expression) for assay details. […]

For `O=C(O)CNC(=O)c1ncc(-c2cc(-c3ccc(CO)c([N+](=O)[O-])c3)no2)cc1O` [NBA-ZG-2291], the “Cellular triglyceride (TG) levels” value was “significantly improved cellular triglyceride levels” and the “Lipid droplet accumulation (Oil Red O staining)” value (compared with control cells) was “reduced lipid droplet accumulation”.
